Results reported in ChEMBL document CHEMBL5537135, “Novel antimicrobial peptides modified with fluorinated sulfono-γ-AA having high stability and targeting multidrug-resistant bacteria infections” (Eur J Med Chem, 2024).
Calls of active or inactive are those of the source. Numbered stars: 1 amine (or outer) side, 2 acyl side, 3 side chain; on linkers, the order of the positions; unused ones are H or OH. Square brackets hold non-standard residues; d marks the D form. Peptide text beside a SMILES is read from it. * marks the point of attachment. X3 = CC(C)C[C@@H](CN(CC(N)=O)S(=O)(=O)c1ccc(C(F)(F)F)cc1)N*; X2 = CC(C)C[C@H](N)CN(CC(=O)[*:2])[*:1]; X1 = O=S(=O)(c1ccc(C(F)(F)F)cc1)*

What was measured:
Staphylococcus aureus [1] = test: Antimicrobial activity against methicillin-resistant Staphylococcus aureus 9 assessed as inhibition of visible bacterial growth incubated for 18 hrs by broth-dilution method; format: functional
Pseudomonas aeruginosa [2] = test: Antibacterial activity against drug-susceptible Pseudomonas aeruginosa […] assessed as reduction in microbial growth; format: functional
Escherichia coli = test: Antimicrobial activity against Escherichia coli ATCC 25922 assessed as inhibition of visible bacterial growth incubated for 18 hrs by broth-dilution method; format: functional
Cell membrane [3] = test: Induction of outer membrane permeabilization in Pseudomonas aeruginosa ATCC 27853 assessed as increase in NPN uptake measured upto 20 mins by NPN-dye based fluorescence analysis
Cell membrane [4] = test: Disruption of membrane integrity in Staphylococcus aureus ATCC 33591 incubated for 30 mins by PI staining based CLSM analysis; format: cell membranes
Pseudomonas aeruginosa [5] = test: Antibiofilm activity against Pseudomonas aeruginosa ATCC 27853 assessed as biofilm eradication at 4 times MIC incubated for 1 hr by crystal violet staining based assay; format: functional, organism-based
Staphylococcus aureus [6] = test: Additive antibacterial activity against methicillin-resistant Staphylococcus aureus S5 assessed as fractional inhibitory concentration index in presence of amoxicillin by checkerboard assay; format: functional
Staphylococcus aureus [7] = test: Antimicrobial activity against Staphylococcus aureus ATCC 25923 assessed as inhibition of visible bacterial growth incubated for 18 hrs by broth-dilution method; format: functional
Pseudomonas aeruginosa [8] = test: Antimicrobial activity against multidrug-resistant Pseudomonas aeruginosa 516 assessed as inhibition of visible bacterial growth incubated for 18 hrs by broth-dilution method; format: functional
Staphylococcus aureus [9] = test: Antibiofilm activity against methicillin-resistant Staphylococcus aureus ATCC 33591 assessed as biofilm eradication at 4 times MIC incubated for 2 to 4 hrs by crystal violet staining based assay; format: functional, organism-based; settings: time 2-4 hrs
Cell membrane [10] = test: Disruption of membrane integrity in Pseudomonas aeruginosa ATCC 27853 incubated for 30 mins by PI staining based CLSM analysis
Pseudomonas aeruginosa [11] = test: Antibiofilm activity against Pseudomonas aeruginosa ATCC 27853 assessed as inhibition of biofilm formation at 4 to 8 microg/ml incubated for 24 hrs by crystal violet staining based analysis; format: functional; settings: dose 4-8 µg/ml, at 4 to 8 µg/mL
Pseudomonas aeruginosa [12] = test: Antimicrobial activity against multidrug-resistant Pseudomonas aeruginosa 156 assessed as inhibition of visible bacterial growth incubated for 18 hrs by broth-dilution method; format: functional
Staphylococcus aureus [13] = test: Antimicrobial activity against Staphylococcus aureus ATCC 25923 assessed as reduction in bacterial growth in presence of Ca2+; format: functional
Pseudomonas aeruginosa [14] = test: Antimicrobial activity against multidrug-resistant Pseudomonas aeruginosa 073 assessed as inhibition of visible bacterial growth incubated for 18 hrs by broth-dilution method; format: functional
Pseudomonas aeruginosa [15] = test: Antimicrobial activity against Pseudomonas aeruginosa ATCC 27853 at 1 times MIC incubated for 18 hrs in presence of LPS/LTA; format: functional, organism-based
Staphylococcus aureus [16] = test: Antimicrobial activity against methicillin-resistant Staphylococcus aureus ATCC 33591 assessed as inhibition of visible bacterial growth incubated for 18 hrs by broth-dilution method; format: functional
Salmonella typhimurium = test: Antimicrobial activity against Salmonella typhimurium ATCC 14028 assessed as inhibition of visible bacterial growth incubated for 18 hrs by broth-dilution method; format: functional, Salmonella enterica subsp. enterica serovar Typhimurium; settings: Salmonella enterica
Pseudomonas aeruginosa [17] = test: Antimicrobial activity against multidrug-resistant Pseudomonas aeruginosa 124 assessed as inhibition of visible bacterial growth incubated for 18 hrs by broth-dilution method; format: functional
Acinetobacter baumannii = test: Antimicrobial activity against Acinetobacter baumannii ATCC 19606 assessed as inhibition of visible bacterial growth incubated for 18 hrs by broth-dilution method; format: functional
Staphylococcus aureus [18] = test: Antimicrobial activity against methicillin-resistant Staphylococcus aureus 4 assessed as inhibition of visible bacterial growth incubated for 18 hrs by broth-dilution method; format: functional
Pseudomonas aeruginosa [19] = test: Synergistic antibacterial activity against Pseudomonas […] assessed as fractional inhibitory concentration index in presence of polymyxin B by checkerboard assay; format: functional
Staphylococcus aureus [20] = test: Antimicrobial activity against methicillin-resistant Staphylococcus aureus 2 assessed as inhibition of visible bacterial growth incubated for 18 hrs by broth-dilution method; format: functional
Staphylococcus aureus [21] = test: Antimicrobial activity against Staphylococcus aureus ATCC 33591 at 1 times MIC incubated for 18 hrs in presence of LPS/LTA; format: functional, organism-based
Staphylococcus aureus [22] = test: Antimicrobial activity against methicillin-resistant Staphylococcus aureus 7 assessed as inhibition of visible bacterial growth incubated for 18 hrs by broth-dilution method; format: functional
Pseudomonas aeruginosa [23] = test: Antimicrobial activity against Pseudomonas aeruginosa ATCC 27853 assessed as reduction in microbial growth in presence of human serum; format: functional
Staphylococcus aureus [24] = test: Antimicrobial activity against methicillin-resistant Staphylococcus aureus 10 assessed as inhibition of visible bacterial growth incubated for 18 hrs by broth-dilution method; format: functional
Staphylococcus aureus [25] = test: Antimicrobial activity against Staphylococcus aureus ATCC 25923 assessed as fold change in MIC in presence of salt solution; format: functional
Staphylococcus aureus [26] = test: Antimicrobial activity against methicillin-resistant Staphylococcus aureus 5 assessed as inhibition of visible bacterial growth incubated for 18 hrs by broth-dilution method; format: functional
Staphylococcus aureus [27] = test: Antibiofilm activity against methicillin-resistant Staphylococcus aureus ATCC 33591 assessed as biofilm thickness at 1 times MIC90 incubated for 24 hrs by confocal laser scanning microscopic analysis; format: functional
Pseudomonas aeruginosa [28] = test: Bactericidal activity against Pseudomonas aeruginosa ATCC 27853 assessed as reduction in viable bacteria at 4 times MIC measured for 5 min by time-kill assay; format: functional, organism-based
Staphylococcus aureus [29] = test: Antibiofilm activity against methicillin-resistant Staphylococcus aureus ATCC 33591 assessed as biofilm thickness at 2 times MIC90 incubated for 24 hrs by confocal laser scanning microscopic analysis; format: functional
[30] = test system: Staphylococcus epidermidis; test: Antimicrobial activity against Staphylococcus epidermidis ATCC 12228 assessed as inhibition of visible bacterial growth incubated for 18 hrs by broth-dilution method; format: functional
Pseudomonas aeruginosa [31] = test: Antimicrobial activity against multidrug-resistant Pseudomonas aeruginosa 157 assessed as inhibition of visible bacterial growth incubated for 18 hrs by broth-dilution method; format: functional
Pseudomonas aeruginosa [32] = test: Antibiofilm activity against Pseudomonas aeruginosa ATCC 27853 assessed as biofilm thickness at 8 microg/ml incubated for 24 hrs by confocal laser scanning microscopic analysis; format: functional; settings: dose 8 µg/ml
Pseudomonas aeruginosa [33] = test: Antimicrobial activity against multidrug-resistant Pseudomonas aeruginosa 085 assessed as inhibition of visible bacterial growth incubated for 18 hrs by broth-dilution method; format: functional
Pseudomonas aeruginosa [34] = test: Induction of intracellular ROS accumulation in Pseudomonas aeruginosa ATCC 27853 by DCFH-DA dye based fluorescence assay; format: functional, organism-based
Pseudomonas aeruginosa [35] = test: Bactericidal activity against Pseudomonas aeruginosa ATCC 27853 at 1 to 4 times MIC by time-kill assay; format: functional, organism-based
Staphylococcus aureus [36] = test: Antimicrobial activity against methicillin-resistant Staphylococcus aureus 8 assessed as inhibition of visible bacterial growth incubated for 18 hrs by broth-dilution method; format: functional
Staphylococcus aureus [37] = test: Antimicrobial activity against Staphylococcus aureus ATCC 25923 assessed as reduction in bacterial growth in presence of human serum; format: functional
Staphylococcus aureus [38] = test: Antimicrobial activity against Staphylococcus aureus ATCC 25923 assessed as fold increase in MIC in presence of human serum; format: functional
Pseudomonas aeruginosa [39] = test: Antimicrobial activity against Pseudomonas aeruginosa ATCC 27853 assessed as inhibition of visible bacterial growth incubated for 18 hrs by broth-dilution method; format: functional
Staphylococcus aureus [40] = test: Antimicrobial activity against methicillin-resistant Staphylococcus aureus ATCC 33591 assessed as reduction in bacterial growth in presence of human serum; format: functional

CC(C)C[C@@H](CN(CC(N)=O)S(=O)(=O)c1ccc(C(F)(F)F)cc1)NC(=O)[C@H](CCCCN)NC(=O)[C@H](CCCCN)NC(=O)[C@H](CC(C)C)NC(=O)[C@H](CC(C)C)NC(=O)[C@H](CCCCN)NC(=O)[C@H](CC(C)C)NC(=O)[C@@H](N)Cc1ccccc1 (H-FLKLLKK-X3)
active: Activity (Cell membrane [3]) Dose-Dependent Effect | Activity (Cell membrane [4]) | Activity (Pseudomonas aeruginosa [5]) | Activity (Staphylococcus aureus [9]) | Activity (Cell membrane [10]) | Activity (Pseudomonas aeruginosa [28]) | Activity (Pseudomonas aeruginosa [34]) | Activity (Pseudomonas aeruginosa [35])
32 µg/mL: MIC (Staphylococcus aureus [13])
50%: inhibition (INH) (Pseudomonas aeruginosa [11])
inactive: Activity (Pseudomonas aeruginosa [15]) | Activity (Staphylococcus aureus [21])
0.75: fractional inhibitory concentration index (FICI) (Pseudomonas aeruginosa [19])
0.25: fold change (FC) (Staphylococcus aureus [25])
0.5: fractional inhibitory concentration index (FICI) (Staphylococcus aureus [6])
2: fold change (FC) (Staphylococcus aureus [38])
40 um: Activity (Staphylococcus aureus [27])
8 µg/mL: MIC (Staphylococcus aureus [1]) | MIC (Pseudomonas aeruginosa [17]) | MIC (Staphylococcus aureus [18]) | MIC (Staphylococcus aureus [22]) | MIC (Pseudomonas aeruginosa [23]) | MIC (Staphylococcus aureus [24]) | MIC (Staphylococcus aureus [26]) | MIC (Pseudomonas aeruginosa [31]) | MIC (Staphylococcus aureus [37]) | MIC (Pseudomonas aeruginosa [39]) | MIC (Staphylococcus aureus [40])
20 um: Activity (Staphylococcus aureus [29]) | Activity (Pseudomonas aeruginosa [32])
4 µg/mL: MIC (Pseudomonas aeruginosa [2]) | MIC (Staphylococcus aureus [7]) | MIC (Staphylococcus aureus [16]) | MIC (Staphylococcus aureus [20]) | MIC [30] | MIC (Staphylococcus aureus [36])
16 µg/mL: MIC (Escherichia coli) | MIC (Pseudomonas aeruginosa [8]) | MIC (Pseudomonas aeruginosa [12]) | MIC (Pseudomonas aeruginosa [14]) | MIC (Salmonella typhimurium) | MIC (Acinetobacter baumannii) | MIC (Pseudomonas aeruginosa [33])

CC(C)C[C@H](N)CN(CC(=O)N[C@@H](CCCCN)C(=O)N[C@@H](CC(C)C)C(=O)N[C@@H](CC(C)C)C(=O)N[C@@H](CCCCN)C(=O)N[C@@H](CCCCN)C(=O)N[C@@H](CC(C)C)C(=O)N[C@@H](CC(C)C)C(N)=O)S(=O)(=O)c1ccc(C(F)(F)F)cc1 (X1-[X2]KLLKKLL-NH2)
0.5: fractional inhibitory concentration index (FICI) (Pseudomonas aeruginosa [19])
20 um: Activity (Staphylococcus aureus [29]) | Activity (Pseudomonas aeruginosa [32])
1: fractional inhibitory concentration index (FICI) (Staphylococcus aureus [6])
0.25: fold change (FC) (Staphylococcus aureus [25])
50%: inhibition (INH) (Pseudomonas aeruginosa [11])
40 um: Activity (Staphylococcus aureus [27])
8 µg/mL: MIC (Staphylococcus aureus [1]) | MIC (Pseudomonas aeruginosa [14]) | MIC (Salmonella typhimurium) | MIC (Pseudomonas aeruginosa [23]) | MIC (Staphylococcus aureus [24]) | MIC (Pseudomonas aeruginosa [33]) | MIC (Staphylococcus aureus [37]) | MIC (Staphylococcus aureus [40])
32 µg/mL: MIC (Staphylococcus aureus [13])
4 µg/mL: MIC (Pseudomonas aeruginosa [2]) | MIC (Staphylococcus aureus [7]) | MIC (Pseudomonas aeruginosa [8]) | MIC (Pseudomonas aeruginosa [12]) | MIC (Staphylococcus aureus [16]) | MIC (Pseudomonas aeruginosa [17]) | MIC (Staphylococcus aureus [18]) | MIC (Staphylococcus aureus [20]) | MIC (Staphylococcus aureus [22]) | MIC (Staphylococcus aureus [26]) | MIC [30] | MIC (Pseudomonas aeruginosa [31]) | MIC (Staphylococcus aureus [36]) | MIC (Pseudomonas aeruginosa [39])
active: Activity (Cell membrane [3]) Dose-Dependent Effect | Activity (Cell membrane [4]) | Activity (Pseudomonas aeruginosa [5]) | Activity (Staphylococcus aureus [9]) | Activity (Cell membrane [10]) | Activity (Pseudomonas aeruginosa [28]) | Activity (Pseudomonas aeruginosa [34]) | Activity (Pseudomonas aeruginosa [35])
inactive: Activity (Pseudomonas aeruginosa [15]) | Activity (Staphylococcus aureus [21])
16 µg/mL: MIC (Escherichia coli) | MIC (Acinetobacter baumannii)
2: fold change (FC) (Staphylococcus aureus [38])
